Like-named read-outs stand apart in the source and are kept apart here.
Key:
Assay type in all cases: biochemical
PLK1 = PLK1 (Homo sapiens, UniProt P53350); assay: PLK TR-FRET peptide assay, PLK1; settings: GST-PLK1, 60 min reaction
PLK2 = PLK2 (Homo sapiens, UniProt Q9NYY3); assay: PLK TR-FRET peptide assay, PLK2; settings: for IC50: PLK TR-FRET peptide assay, GST-PLK2, 60 min reaction, read-out: Plk2 IC50; for relative PLK2 activity of the enantiomers: compared with the opposite enantiomer
PLK3 = PLK3 (Homo sapiens, UniProt Q9H4B4); assay: PLK TR-FRET peptide assay, PLK3
[1] = GST-PLK3, 15 min reaction, read-out: Plk3 IC50
[2] = read-out: Plk3 IC50, GST-PLK3, 15 min reaction

Chain of PLK2 (Q9NYY3 whole entry): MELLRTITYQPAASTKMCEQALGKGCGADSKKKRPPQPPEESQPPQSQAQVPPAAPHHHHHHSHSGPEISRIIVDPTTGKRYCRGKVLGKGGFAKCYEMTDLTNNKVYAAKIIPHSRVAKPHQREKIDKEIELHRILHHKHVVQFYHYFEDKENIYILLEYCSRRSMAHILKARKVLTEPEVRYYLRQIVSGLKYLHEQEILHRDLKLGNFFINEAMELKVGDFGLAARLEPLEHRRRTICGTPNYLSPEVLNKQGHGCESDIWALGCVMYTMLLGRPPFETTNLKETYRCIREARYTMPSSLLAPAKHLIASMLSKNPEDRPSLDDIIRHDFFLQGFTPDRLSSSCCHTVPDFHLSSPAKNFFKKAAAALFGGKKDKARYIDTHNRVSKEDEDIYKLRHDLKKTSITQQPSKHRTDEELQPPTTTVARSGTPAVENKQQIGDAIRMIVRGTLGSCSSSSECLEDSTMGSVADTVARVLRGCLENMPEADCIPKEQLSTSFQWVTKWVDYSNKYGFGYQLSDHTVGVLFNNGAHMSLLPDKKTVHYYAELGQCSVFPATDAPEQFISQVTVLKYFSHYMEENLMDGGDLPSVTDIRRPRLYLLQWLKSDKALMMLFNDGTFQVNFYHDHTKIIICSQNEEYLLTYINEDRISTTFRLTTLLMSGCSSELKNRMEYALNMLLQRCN
Chain of PLK3 (Q9H4B4 whole entry): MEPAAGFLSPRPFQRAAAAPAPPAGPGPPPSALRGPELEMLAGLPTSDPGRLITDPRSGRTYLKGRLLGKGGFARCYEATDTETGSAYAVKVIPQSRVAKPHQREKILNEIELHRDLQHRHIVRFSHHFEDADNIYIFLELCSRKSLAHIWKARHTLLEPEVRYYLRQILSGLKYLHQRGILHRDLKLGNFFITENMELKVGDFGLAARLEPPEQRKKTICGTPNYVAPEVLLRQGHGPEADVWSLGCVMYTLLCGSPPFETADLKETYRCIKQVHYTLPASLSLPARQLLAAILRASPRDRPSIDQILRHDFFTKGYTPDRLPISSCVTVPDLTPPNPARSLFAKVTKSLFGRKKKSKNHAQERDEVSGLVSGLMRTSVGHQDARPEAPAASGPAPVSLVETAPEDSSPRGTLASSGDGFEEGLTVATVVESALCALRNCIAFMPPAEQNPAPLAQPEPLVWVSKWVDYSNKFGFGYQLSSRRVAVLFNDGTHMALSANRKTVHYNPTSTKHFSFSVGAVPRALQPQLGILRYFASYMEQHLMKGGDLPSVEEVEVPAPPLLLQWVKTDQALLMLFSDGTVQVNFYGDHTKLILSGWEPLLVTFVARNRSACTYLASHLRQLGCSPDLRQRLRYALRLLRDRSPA
Chain of PLK1 (P53350 whole entry): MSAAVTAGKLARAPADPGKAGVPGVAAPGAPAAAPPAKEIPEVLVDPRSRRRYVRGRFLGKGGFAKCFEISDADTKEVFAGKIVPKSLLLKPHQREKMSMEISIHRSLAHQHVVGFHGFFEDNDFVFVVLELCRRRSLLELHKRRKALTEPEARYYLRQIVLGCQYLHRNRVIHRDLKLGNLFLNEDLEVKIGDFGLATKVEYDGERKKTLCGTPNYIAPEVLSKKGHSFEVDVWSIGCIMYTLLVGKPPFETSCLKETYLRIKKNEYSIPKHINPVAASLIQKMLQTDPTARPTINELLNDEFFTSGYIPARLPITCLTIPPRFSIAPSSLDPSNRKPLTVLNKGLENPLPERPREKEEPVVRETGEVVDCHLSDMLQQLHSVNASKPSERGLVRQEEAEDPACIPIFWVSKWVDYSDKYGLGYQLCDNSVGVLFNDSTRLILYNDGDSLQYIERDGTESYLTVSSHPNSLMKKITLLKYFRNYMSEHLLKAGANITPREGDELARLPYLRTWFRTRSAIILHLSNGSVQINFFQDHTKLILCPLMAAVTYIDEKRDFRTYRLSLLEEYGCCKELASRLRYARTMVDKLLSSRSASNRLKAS

Row | Structure (SMILES) | IC50 (PLK1) | IC50 (PLK2) | relative PLK2 activity of the enantiomers (PLK2) | further results
1 | CC[C@@H]1C(=O)N(C)c2cnc(N3CCCC3)nc2N1C1CCCC1 [Example 1, (R)-8-cyclopentyl-7-ethyl-5-methyl-2-(pyrrolidin-1-yl)-7,8-dihydropteridin-6(5H)-one] | 10 to 50 µM | 1 to 10 µM |  | 
2 | CC[C@@H]1C(=O)N(C)c2cnc(N3CCCCC3)nc2N1C1CCCC1 [Example 2, (R)-8-cyclopentyl-7-ethyl-5-methyl-2-(piperidin-1-yl)-7,8-dihydropteridin-6(5H)-one] | 10 to 50 µM | 10 to 50 µM |  | 
3 | CC[C@@H]1C(=O)N(C)c2cnc(-n3cnc4ccccc43)nc2N1C1CCCC1 [Example 4, (R)-2-(1H-benzo[d]imidazol-1-yl)-8-cyclopentyl-7-ethyl-5-methyl-7,8-dihydropteridin-6(5H)-one] | < 1 µM | < 1 µM |  | 
4 | CC[C@@H]1C(=O)N(C)c2cnc(-c3ccc[nH]3)nc2N1C1CCCC1 [Example 6, (R)-8-cyclopentyl-7-ethyl-5-methyl-2-(1H-pyrrol-2-yl)-7,8-dihydropteridin-6(5H)-one] | < 1 µM | < 1 µM |  | 
5 | CC[C@@H]1C(=O)N(C)c2cnc(-c3ccccn3)nc2N1C1CCCC1 [Example 8, (R)-8-cyclopentyl-7-ethyl-5-methyl-2-(pyridin-2-yl)-7,8-dihydropteridin-6(5H)-one] | 1 to 10 µM | 1 to 10 µM |  | 
6 | CC[C@@H]1C(=O)N(C)c2cnc(-c3cc4ccccc4[nH]3)nc2N1C1CCCC1 [Example 9, (R)-8-cyclopentyl-7-ethyl-2-(1H-indol-2-yl)-5-methyl-7,8-dihydropteridin-6(5H)-one] | < 1 µM | 1 to 10 µM |  | 
7 | CC[C@@H]1C(=O)N(C)c2cnc(-c3cccc4cc[nH]c34)nc2N1C1CCCC1 [Example 10, (R)-8-cyclopentyl-7-ethyl-2-(1H-indol-7-yl)-5-methyl-7,8-dihydropteridin-6(5H)-one] | 10 to 50 µM | 1 to 10 µM |  | 
8 | CC[C@@H]1C(=O)N(C)c2cnc(-c3cccc4cccnc34)nc2N1C1CCCC1 [Example 11, (R)-8-cyclopentyl-7-ethyl-5-methyl-2-(quinolin-8-yl)-7,8-dihydropteridin-6(5H)-one] | > 50 µM | 10 to 50 µM |  | 
9 | CC[C@@H]1C(=O)N(C)c2cnc(-c3ccccc3)nc2N1C1CCCC1 [Example 12, (R)-8-cyclopentyl-7-ethyl-5-methyl-2-phenyl-7,8-dihydropteridin-6(5H)-one] | 1 to 10 µM | 1 to 10 µM |  | 
10 | CC[C@@H]1C(=O)N(C)c2cnc(-c3ccnc(OC)c3)nc2N1C1CCCC1 [Example 15, (R)-8-cyclopentyl-7-ethyl-2-(2-methoxypyridin-4-yl)-5-methyl-7,8-dihydropteridin-6(5H)-one] | < 1 µM | < 1 µM |  | 
11 | CN1C(=O)[C@H]2CCCCN2c2nc(-n3ccnc3)ncc21 [Example 24, (R)-2-(1H-imidazol-1-yl)-5-methyl-7,8,9,10-tetrahydro-5H-pyrido[2,1-h]pteridin-6(6aH)-one] | > 50 µM | > 50 µM |  | 
12 | CN1C(=O)[C@H]2CCCCN2c2nc(-c3ccncc3)ncc21 [Example 25, (R)-5-methyl-2-(pyridin-4-yl)-7,8,9,10-tetrahydro-5H-pyrido[2,1-h]pteridin-6(6aH)-one] | > 50 µM | 10 to 50 µM |  | 
13 | CC[C@@H]1C(=O)N(C)c2cnc(-n3cc[n+](C)c3C)nc2N1C1CCCC1 [Example 28, (R)-1-(8-cyclopentyl-7-ethyl-5-methyl-6-oxo-5,6,7,8-tetrahydropteridin-2-yl)-2,3-dimethyl-1H-imidazol-3-ium] | > 50 µM | > 50 µM |  | 
14 | CCOC(=O)c1cnn(-c2ncc3c(n2)N(C2CCCC2)[C@H](CC)C(=O)N3)c1 [Example 30, (R)-ethyl 1-(8-cyclopentyl-7-ethyl-6-oxo-5,6,7,8-tetrahydropteridin-2-yl)-1H-pyrazole-4-carboxylate] | > 50 µM | > 50 µM |  | 
15 | CC[C@@H]1C(=O)N(C)c2cnc(-n3cc(C(=O)NC)cn3)nc2N1C1CCCC1 [Example 40, (R)-1-(8-cyclopentyl-7-ethyl-5-methyl-6-oxo-5,6,7,8-tetrahydropteridin-2-yl)-N-methyl-1H-pyrazole-4-carboxamide] |  | 1 to 10 µM |  | 
16 | CC[C@@H]1C(=O)N(C)c2cnc(-c3ccccc3-c3ccccc3)nc2N1C1CCCC1 [Example 70, (R)-2-(biphenyl-2-yl)-8-cyclopentyl-7-ethyl-5-methyl-7,8-dihydropteridin-6(5H)-one] | < 1 µM |  |  | IC50 (PLK3; [1]): < 1 µM
17 | CC[C@@H]1C(=O)N(C)c2cnc(-c3ccncc3CNC(=O)OC(C)(C)C)nc2N1C1CCCC1 [Example 106, (R)-tert-butyl (4-(8-cyclopentyl-7-ethyl-5-methyl-6-oxo-5,6,7,8-tetrahydropteridin-2-yl)pyridin-3-yl)methylcarbamate] | 10 to 50 µM |  |  | IC50 (PLK3; [1]): > 50 µM

Row | Structure (SMILES) | IC50 (PLK1) | IC50 (PLK2) | relative PLK2 activity of the enantiomers (PLK2) | further results
18 | CC[C@@]12CCCN1c1nc(-n3ccnc3-c3cccc(Br)c3)ncc1N(C)C2=O [Example 252, (S)-2-(2-(3-bromophenyl)-1H-imidazol-1-yl)-6a-ethyl-5-methyl-6a,7,8,9-tetrahydropyrrolo[2,1-h]pteridin-6(5H)-one] | 1 to 10 µM |  |  | IC50 (PLK3; [1]): 10 to 50 µM
19 | CCC1(C)C(=O)N(C)c2cnc(-n3ccnc3-c3ccc(F)cc3)nc2N1CCC(F)(F)F (stereo not drawn) [Example 279, 7-ethyl-2-(2-(4-fluorophenyl)-1H-imidazol-1-yl)-5,7-dimethyl-8-(3,3,3-trifluoropropyl)-7,8-dihydropteridin-6(5H)-one] |  |  |  | IC50 (PLK3; [2]): 10 to 50 µM
20 | CC(C)N1c2nc(-n3ccnc3-c3ccc(F)cc3)ncc2N(C)C(=O)C12CCC2 [Example 290, 2′-(2-(4-fluorophenyl)-1H-imidazol-1-yl)-8′-isopropyl-5′-methyl-5′H-Spiro[cyclobutane-1,7′-pteridin]-6′(8′H)-one] |  |  |  | IC50 (PLK3; [2]): 10 to 50 µM
21 | CCC1C(=O)N(C)c2cnc(-n3ccnc3-c3ccc(F)cc3)nc2N1c1cccc(C#N)c1 (stereo not drawn) [Example 332] |  | < 1 µM |  | IC50 (PLK3; [1]): 1 to 10 µM
22 | CC[C@@]12COCCN1c1nc(-c3cn[nH]c3-c3nccs3)ncc1N(C)C2=O [Example 344, (S)-6a-ethyl-5-methyl-2-(5-(thiazol-2-yl)-1H-pyrazol-4-yl)-6a,7,9,10-tetrahydro-[1,4]oxazino[3,4-h]pteridin-6(5H)-one] |  |  | more active compound | 
23 | CC[C@@]12COCCN1c1nc(-c3snnc3-c3ccccc3)ncc1N(C)C2=O [Example 368, (S)-6a-ethyl-5-methyl-2-(4-phenyl-1,2,3-thiadiazol-5-yl)-6a,7,9,10-tetrahydro-[1,4]oxazino[3,4-h]pteridin-6(5H)-one] |  |  | more active compound | 
24 | CC[C@@]12CN(C)CCN1c1nc(-n3ccnc3-c3ccccc3)ncc1N(C)C2=O [Example 374, (S)-6a-ethyl-5,8-dimethyl-2-(2-phenyl-1H-imidazol-1-yl)-7,8,9,10-tetrahydro-5H-pyrazino[2,1-h]pteridin-6(6aH)-one] |  |  | more active compound | 
25 | CC[C@@]12COCCN1c1nc(-n3ccnc3-c3ccc(F)cc3F)ncc1N(C)C2=O [Example 376, (S)-2-(2-(2,4-difluorophenyl)-1H-imidazol-1-yl)-6a-ethyl-5-methyl-6a,7,9,10-tetrahydro-[1,4]oxazino[3,4-h]pteridin-6(5H)-one] |  |  | more active compound | 
26 | CC[C@@]12COCCN1c1nc(-n3ccnc3-c3ccc(F)cn3)ncc1N(C)C2=O [Example 380, (S)-6a-ethyl-2-(2-(5-fluoropyridin-2-yl)-1H-imidazol-1-yl)-5-methyl-6a,7,9,10-tetrahydro-[1,4]oxazino[3,4-h]pteridin-6(5H)-one] |  |  | more active compound | 
27 | CC[C@@]12COCCN1c1nc(-n3ccnc3-c3nccs3)ncc1N(C)C2=O [Example 387, (S)-6a-ethyl-5-methyl-2-(2-(thiazol-2-yl)-1H-imidazol-1-yl)-6a,7,9,10-tetrahydro-[1,4]oxazino[3,4-h]pteridin-6(5H)-one] |  |  | more active compound | 
28 | CC[C@@]12COCCN1c1nc(-c3ccncc3-c3ccccc3)ncc1N(C)C2=O [Example 394, (S)-6a-ethyl-5-methyl-2-(3-phenylpyridin-4-yl)-6a,7,9,10-tetrahydro-[1,4]oxazino[3,4-h]pteridin-6(5H)-one] |  |  | more active compound | 
29 | CC[C@@]12COCCN1c1nc(-c3snnc3-c3ccc(F)cc3F)ncc1N(C)C2=O [Example 397, (S)-2-(4-(2,4-difluorophenyl)-1,2,3-thiadiazol-5-yl)-6a-ethyl-5-methyl-6a,7,9,10-tetrahydro-[1,4]oxazino[3,4-h]pteridin-6(5H)-one] |  |  | more active compound | 
30 | CC[C@@H]1C(=O)N(C)c2cnc(-n3ccnc3-c3ccc(F)cc3)nc2N1c1ccn(C)n1 [Example 407, (R)-7-ethyl-2-(2-(4-fluorophenyl)-1H-imidazol-1-yl)-5-methyl-8-(1-methyl-1H-pyrazol-3-yl)-7,8-dihydropteridin-6(5H)-one] |  |  | more active compound | 
31 | CC[C@@H]1C(=O)N(C)c2cnc(-n3ccnc3-c3ccccc3)nc2N1c1cnn(C)c1 [Example 409, (R)-7-ethyl-5-methyl-8-(1-methyl-1H-pyrazol-4-yl)-2-(2-phenyl-1H-imidazol-1-yl)-7,8-dihydropteridin-6(5H)-one] |  |  | more active compound | 
32 | CC[C@@]12COCCN1c1nc(-c3cn[nH]c3-c3ccc(F)cc3F)ncc1N(C)C2=O [Example 411, (S)-2-(5-(2,4-difluorophenyl)-1H-pyrazol-4-yl)-6a-ethyl-5-methyl-6a,7,9,10-tetrahydro-[1,4]oxazino[3,4-h]pteridin-6(5H)-one] |  |  | more active compound | 
33 | CC[C@@]12COCCN1c1nc(-n3ccnc3-c3ccccc3)ncc1NC2=O [Example 418, (S)-6a-ethyl-2-(2-phenyl-1H-imidazol-1-yl)-6a,7,9,10-tetrahydro-[1,4]oxazino[3,4-h]pteridin-6(5H)-one] |  |  | more active compound | 

Source: US8541418B2, “Inhibitors of polo-like kinase” (Elan Pharmaceutical, Inc., priority 2009, dated 2013)
